Where a SMILES comes first, the peptide text is derived from it. Bridges are numbered along the chain shown (N, C = ends).
Experiments:
CD rats = experiment: rat gastrointestinal transit assay; assay type: in vivo
Description: The gastrointestinal transit assay was also performed in male and female CD rats (Charles River; Wilmington, Mass.) weighing between 136-191 g with an average weight of 167.6 g. The assay was performed as described above for mice except an average of 5-8 animals were used for each test group and test peptide and 5% activated carbon were administered simultaneously (versus 7 minutes apart). In addition, the animals were sacrificed 10 minutes after the administration of peptide and test compound.

suckling mice = experiment: suckling mouse model of intestinal secretion (SuMi assay); assay type: in vivo; conditions: dose response, FIG. 5a, 5b
Description: In this model a test compound is administered to suckling mice that are between 7 and 9 days old. After the mice are sacrificed, the gastrointestinal tract from the stomach to the cecum is dissected (“guts”). The remains (“carcass”) as well as the guts are weighed and the ratio of guts to carcass weight is calculated. If the ratio is above 0.09, one can conclude that the test compound increases intestinal secretion. […] The effect of Zelnorm® was also studied.

WT and GC-C KO mice [1] = experiment: colorectal distension under basal conditions in WT and GC-C KO mice; assay type: in vivo, mouse; conditions: oral 0.01 and 0.3 μg/kg
Description: (§1) TNBS induced visceral hypersensitivity was assessed in WT and GC-C KO mice. Two groups (WT and GC-C KO) of male mice (22-25 g) were surgically prepared for electromyographic (EMG) recordings. Three electrodes were implanted in the striated muscles of the abdomen for EMG recording of abdominal contractions. Colorectal distension (CRD) was performed with a balloon inflated by 10s steps of 0.02 ml from 0 to 0.12 ml. Under basal conditions mice were submitted to control CRD (time 0) followed by oral administration of SEQ ID NO:3 (0.01 and 0.3 μg/kg) or vehicle only (distilled water, 1 ml) at 3 hours. One hour post dosing the CRD procedure was repeated. Abdominal EMG contractile response to colorectal distension in basal conditions in both WT and GC-C KO mice (12-14 mice per group) was determined in the absence of vehicle and SEQ ID NO:3, and the mean+/−standard error of the mean (SEM) is graphically depicted in FIG. 7c.

WT and GC-C KO mice [2] = experiment: TNBS visceral hypersensitivity model in WT and GC-C KO mice; assay type: in vivo, mouse; conditions: oral 0.01 μg/kg, FIG. 7d
Description: as §1
For TNBS induced visceral hypersensitivity conditions, mice were submitted to control CRD (time 0) and TNBS (20 mg/kg) was administered at 3 days. […] The effect of SEQ ID NO:3 ([…]) on abdominal response to colorectal distension after TNBS in WT and GC-C KO mice (12-14 per group) at a volume distension of […] was determined and the mean+/−standard error of the mean (SEM) is graphically depicted in FIG. 7d.

adult male Wistar rats = experiment: basal visceral nociception (visceromotor response to CRD); assay type: in vivo, rat
Description: The effect of SEQ ID NO:3 on basal visceral nociception in a model of water avoidance stress-induced visceral hyperalgesia in adult male Wistar rats was tested. The stress involved confining rats to a platform surrounded by water for a period of 1 hour and then measuring their visceromotor response to colonic distension using electromyography (EMG).
Electrode leads were then tunneled subcutaneously and externalized laterally for future access. Following surgery, rats were housed in pairs and allowed to recover for at least 7 days. On the day of the experiment, animals were lightly anesthetized with halothane, and a lubricated latex balloon (6 cm) was inserted intra-anally into the descending colon. Animals were allowed to recover for 30 minutes, and colorectal distension (CRD) was initiated. The CRD procedure consisted of graded intensities of phasic CRD (10, 20, 40, 60 mmHg; 20 s duration; 4 min inter-stimulus interval). Visceromotor response (VMR) to CRD was quantified by measuring EMG activity. […] Animals were allowed 1 hour recovery and then SEQ ID NO:3 or vehicle was orally administered. At 1 hour following administration of SEQ ID NO:3 or vehicle CRD was repeated. […] The mean value (+/−SEM) of in vehicle and SEQ ID NO:3 treated groups (n=7 for each group) is graphically depicted in FIG. 7e.

healthy subjects = experiment: seven-day oral dosing study in humans, bowel habits; assay type: in vivo, human
Description: Seven daily doses of 30, 100, 300, or 1000 μg of chemically synthesized SEQ ID NO:3 were given to 48 healthy subjects. SEQ ID NO:3 or placebo (vehicle) was administered orally in 5.0 mL 50 mM phosphate buffer (pH 6.0) plus 3×20 mL water rinses and 175 mL water after at least a 10-hour fast. In each dosing group, 8 subjects were randomized to receive SEQ ID NO:3 and 4 subjects were randomized to receive placebo. […] The Mean Ease of Passage (FIG. 15d) of stools was tested for subjects treated with 30-1000 μg SEQ ID NO:3.

[3] = molecular target: intestinal epithelial cells from wild-type and GC-C KO mice (Mus musculus, UniProt Q3UWA6); conditions: 125I-SEQ ID NO:3 alone or with excess unlabeled SEQ ID NO:3, FIG. 9b
intestinal epithelial cells from wild-type and GC-C KO mice, sequence (Q3UWA6 20-1072): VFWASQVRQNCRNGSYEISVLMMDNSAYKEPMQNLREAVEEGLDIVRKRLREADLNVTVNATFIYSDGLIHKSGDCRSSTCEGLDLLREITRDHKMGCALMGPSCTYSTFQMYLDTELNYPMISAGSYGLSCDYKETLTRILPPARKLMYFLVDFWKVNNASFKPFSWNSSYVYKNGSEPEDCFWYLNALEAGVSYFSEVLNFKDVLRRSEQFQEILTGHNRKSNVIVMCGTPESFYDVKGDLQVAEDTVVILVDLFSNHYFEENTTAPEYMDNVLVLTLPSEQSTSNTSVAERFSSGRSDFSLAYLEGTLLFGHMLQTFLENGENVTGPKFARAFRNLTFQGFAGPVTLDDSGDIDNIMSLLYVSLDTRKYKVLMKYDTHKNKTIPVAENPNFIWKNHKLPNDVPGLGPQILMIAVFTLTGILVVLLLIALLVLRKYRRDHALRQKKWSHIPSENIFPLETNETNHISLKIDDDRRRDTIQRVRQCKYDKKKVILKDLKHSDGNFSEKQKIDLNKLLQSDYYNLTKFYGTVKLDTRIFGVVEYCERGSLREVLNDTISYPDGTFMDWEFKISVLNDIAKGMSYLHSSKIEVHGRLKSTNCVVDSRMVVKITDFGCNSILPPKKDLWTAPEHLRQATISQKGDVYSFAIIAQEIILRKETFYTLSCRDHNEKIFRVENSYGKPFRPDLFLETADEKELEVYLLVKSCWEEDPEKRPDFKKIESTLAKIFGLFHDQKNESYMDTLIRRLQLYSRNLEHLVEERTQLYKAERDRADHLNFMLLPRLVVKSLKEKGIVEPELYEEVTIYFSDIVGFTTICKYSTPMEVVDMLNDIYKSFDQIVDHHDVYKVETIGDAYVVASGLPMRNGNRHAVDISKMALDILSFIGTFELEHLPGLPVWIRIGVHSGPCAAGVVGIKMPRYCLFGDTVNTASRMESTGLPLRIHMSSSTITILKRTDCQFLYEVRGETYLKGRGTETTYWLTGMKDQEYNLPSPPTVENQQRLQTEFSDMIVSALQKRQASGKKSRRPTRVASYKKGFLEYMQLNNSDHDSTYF
Description: Mouse intestinal epithelial cells were prepared identical to that above as for rat intestinal epithelial cells except the cells were homogenized with an Omni homogenizer for 20 seconds on the maximum setting to make a suspension of cells. A competition binding assay was performed identical to that described above between ^125I labeled SEQ ID NO:3 and unlabeled SEQ ID NO:3 (competitor).

Compound: C[C@@H]1NC(=O)[C@@H]2CCCN2C(=O)[C@H](CC(N)=O)NC(=O)[C@@H]2CSSC[C@H](N)C(=O)N[C@H]3CSSC[C@H](NC1=O)C(=O)N[C@@H]([C@@H](C)O)C(=O)NCC(=O)N[C@H](C(=O)N[C@@H](Cc1ccc(O)cc1)C(=O)O)CSSC[C@H](NC(=O)[C@H](Cc1ccc(O)cc1)NC(=O)[C@H](CCC(=O)O)NC3=O)C(=O)N2 [SEQ ID NO:3] (H-CCEYCCNPACTGCY-OH; disulfide 1-6, 2-10, 5-13; N-terminus and C-terminus assumed)
- intestinal transit, dose dependence (CD rats; female rats, FIG. 4e): increases in a dose dependent manner
- intestinal transit (CD rats; rat GIT assay, FIG. 4d): intestinal transit increases
- intestinal secretion (ratio of guts to carcass weight) (suckling mice): increase intestinal secretion
- EMG response to colorectal distension (WT and GC-C KO mice [1]): decreased the EMG response to colorectal distension
- TNBS induced hypersensitivity to CRD (WT and GC-C KO mice [2]; GC-C KO mice): A similar effect was not observed
- TNBS induced hypersensitivity to CRD (WT and GC-C KO mice [2]; WT mice): reduces the TNBS induced hypersensitivity to CRD
- basal visceral nociception (adult male Wistar rats; oral 3 μg/kg): no effects
- basal visceral nociception (adult male Wistar rats; oral 30 μg/kg, versus vehicle, FIG. 7e): increased basal visceral nociception
- Mean Ease of Passage of stools, baseline versus treatment, placebo versus SEQ ID NO:3 (healthy subjects; 1000 μg dose group, FIG. 15e): greatest difference
- Mean Stool Weight (healthy subjects; seven daily oral doses 30-1000 μg, higher doses, FIG. 15C): increase
- Mean Stool Frequency (stools per week) (healthy subjects; seven daily oral doses 30-1000 μg, higher doses, FIG. 15b): increase
- binding to intestinal epithelial cells, GC-C KO compared to wild-type mice [3]: reduction in SEQ ID NO:3 binding

From US20090305993A1, “METHODS AND COMPOSITION FOR THE TREATMENT OF GASTROINTESTINAL DISORDERS” (IRONWOOD PHARMACEUTICALS, INC., priority 2006, published 2009)
